According to patent US6303577A, “Use of a peptide compound in the treatment of systemic lupus erythematosus” (Tecnogen S.C.p.A., priority 1998, dated 2001):

Columns and labels:
MRL/Ipr mice [1] = assay: Survival in mouse model of Systemic Lupus Erythematosus; assay type: in vivo; conditions: 1 mg i.p. twice a week from 7 weeks of age
Description: (§1) In vivo studies on the activity of the peptide compounds of formula (I) were carried out by using an experimental animal model of human Systemic Lupus Erythematosus. MRL/Ipr, NZB/NZW or BXSB denote mouse strains that spontaneously develop an autoimmune syndrome having notable similarities to human Systemic Lupus Erythematosus. The MRL-Ipr/Ipr strain is homozigotic for Ipr gene. The lpr mutation causes functional defects in the Fas Ag. Fas belongs to the TNF receptor family and mediates apoptosis (Watanabe-Fukunaga, R. et al., "Nature", 356, 314, 1992; Itoh, N., et al., "Cell", 66, 233, 1991; Murphy, E. D., "Immunological defects in Laboratory Animals", 2, 143, 1981; Steinberg, A. D., "Semin. Immunol.", 6, 55, 1994). Autoimmune disease in MRL/Ipr mice is characterized by autoantibody production, vasculitis, arthritis, and glomerulonephritis that is the major cause of death (Theofilopoulos, A. N., et al., "Adv. Immunol.", 37, 269, 1985; Cohen, P. L., et al., "Annu. Rev. Immunol.", 9, 243, 1991).
(§2) At 7 weeks of age, mice were treated twice a week with 1 mg of D-PAM, L-PAM or placebo […] administered intraperitoneally. The treatment was stopped at 30 weeks of age. Mice were observed daily for clinical signs of disease and for mortality and were bled every 2 weeks for determination of anti-DNA antibody production, while urine protein levels were determined on samples taken twice a week.
Coincident with ameliorating the clinical signs of severe immune complex nephritis, a dramatic prolongation of survival was observed.

Balb/c mice = conditions: mouse, in vivo
Description: The ability of the peptide compounds of formula (I) to evoke an antibody response has been evaluated by immunizing two groups of four Balb/c mice with 100 μg of D-PAM or L-PAM respectively by i.p. injection. After the first immunization, the same immunogen was administered for two subsequent boosts, blood samples were collected from each animal for monitoring antibody titers by an ELISA assay as follow.
Polystyrene microtiter plates (Falcon Cat. No 3912) were coated with a 50 μg/ml D-PAM and L-PAM conjugated to BSA (100 μl/well) in 0.1 M sodium carbonate buffer (pH 8.5) and incubated over night at 4° C. After washing the microtiter plates ten times with a 50 mM phosphate, 150 mM NaCI pH 7.2 buffer (PBS), the wells were saturated with 200 μl of PBS containing bovine serum albumin (BSA, Sigma Cat. No A-9418) for 1 hour at 37° C., to block the uncoated plastic surface. Plates were then washed again with PBS containing 0.05% Tween 20 (PBS-T), and filled with samples (100 μl/well) previously diluted with PBS-T containing 1% BSA (PBS-T-B). […] The color was allowed to develop for 30' and absorbances were read at 405 nm with an ELISA plate reader (Labsystems Multiskan Bichromatic). […]

MRL/Ipr mice [2] = assay: Serum anti-DNA antibodies by ELISA in mouse model of Systemic Lupus Erythematosus; assay type: in vivo; conditions: 1 mg i.p. twice a week from 7 weeks of age
Description: as §1, §2
Standard ELISA assay to measure the serum levels of anti-DNA antibodies was performed as follow. Microtiter plates (Costar, Cat. No 3590) were coated with a 10 μg/ml DNA (Sigma Cat. No D-8899) solution (100 μl/well) in 0.01 M phosphate buffer (pH 8.0) and incubated over night at 4° C. After washing the microtiter plates ten times with a 50 mM phosphate, 150 mM NaCl pH 7.2 buffer (PBS) containing 0.05% Tween (PBS-T), the wells were saturated with 200 μl of PBS-T containing fetal calf serum (1%) heat-inactivated 1 hour at 56° C. (PBS-T-FCS), and incubated for 2 hours at room temperature, to block the uncoated plastic surface. Plates were then washed again with PBS-T, and filled with samples (100 μl/well) previously diluted with PBS-T-FCS. After incubation for 2 hours at room temperature and subsequent washing, wells were filled with 100 μl of horseradish peroxidase labeled goat anti-mouse polyvalent immunoglobulins (IgG, IgA, IgM) (Sigma, Cat. No A-0412) solution diluted 1000 fold with PBS-T-FCS. The plates were then left to stand for 1 hour at room temperature, washed ten times and then filled with 150 μl of ophenylenediamine dihydrochloride (Sigma Cat. No P-6912) chromogenic substrate solution freshly prepared according to protocols from the manufacturer. The color was allowed to develop for 30' and the adsorbance at 450 nm were determined with an ELISA plate reader (Labsystems Multiskan Bichromatic).

MRL/Ipr mice [3] = assay: Histopathologic examination of renal tissue; assay type: in vivo, mouse; conditions: hematoxylin and eosin, light microscope
Description: as §1
At 7 weeks of age, mice were treated twice a week with 1 mg of D-PAM, L-PAM or placebo […] administered intraperitoneally. […] Mice were observed daily for clinical signs of disease and for mortality and were bled every 2 weeks for determination of anti-DNA antibody production, while urine protein levels were determined on samples taken twice a week. […]

in vitro = in vitro ADME, mouse; conditions: for remaining at 5 min / remaining at 20 min / remaining at 40 min / remaining at 1 h: mouse, serum
Description: The stability of the peptide compounds of formula (I) to proteolytic attack by proteases has been evaluated by High Performance Liquid Chromatography (HPLC).
Mouse sera were obtained by cutting a small section off tip of tail and collecting some blood drops. After collection, blood was incubated for 1 hour at 37° C. and then serum was removed from the clot by centrifugation at 1200 g for 20' at 4° C. Various amounts of peptide compounds of formula (I) were added to 50 μl of serum and the mixture was incubated at 37° C. for different periods of time. Afterwards, 2 μl of the reaction mixture were added to 50 μl of 0.1 M acetic acid in order to elute the peptide compound from serum immunoglobulins. Samples were then stored at -80° C. until use.
Analysis of samples was carried out on an Aquapore RP-8 column (30×2.1 mm I.D.), eluting the equilibrated column at a flow rate of 0.5 ml/min with a linear gradient of 0.1% trifluoracetic acid buffer containing increasing acetonitrile concentration from 5% to 60% in 35'. Elution was monitored by absorbance at 225 nm.

MRL/Ipr mice [4] = assay: Urine protein levels (dipstick) in mouse model of Systemic Lupus Erythematosus; assay type: in vivo; conditions: for Mice with proteinuria level >1 g/L (%): 1 mg i.p. twice a week from 7 weeks of age
Description: as §1, §2
Urine protein levels were determined by colorimetric analysis using dipsticks (Combur 7, Boehringer Mannheim, n. cat. 185515) according to protocols from the manufacturer (Wang et al., "Proc. Natl. Acad. Sci. USA", 93, 8563-8568, 1996).

Row | Compound | Survival rate (%) (MRL/Ipr mice [1]; time 15 weeks) | Survival rate (%) (MRL/Ipr mice [1]; time 20 weeks) | Survival rate (%) (MRL/Ipr mice [1]; time 25 weeks) | Survival rate (%) (MRL/Ipr mice [1]; time 30 weeks) | Antibody titer (A 405) (Balb/c mice) | Ig Anti-DNA titer (O.D.) fold increase (MRL/Ipr mice [2]; time 8 weeks) | Ig Anti-DNA titer (O.D.) fold increase (MRL/Ipr mice [2]; time 10 weeks) | Ig Anti-DNA titer (O.D.) fold increase (MRL/Ipr mice [2]; time 14 weeks) | Ig Anti-DNA titer (O.D.) fold increase (MRL/Ipr mice [2]; time 16 weeks) | Ig Anti-DNA titer (O.D.) fold increase (MRL/Ipr mice [2]; time 18 weeks) | Glomerulonephropathic progression versus positive control group (in words) (MRL/Ipr mice [3]) | remaining at 5 min (in vitro) | remaining at 20 min (in vitro) | remaining at 40 min (in vitro) | remaining at 1 h (in vitro) | Onset of severe proteinuria versus untreated animals (in words) (MRL/Ipr mice [4]; 1 mg i.p. twice a week) | Mice with proteinuria level >1 g/L (%) (MRL/Ipr mice [4]; time 8 weeks) | Mice with proteinuria level >1 g/L (%) (MRL/Ipr mice [4]; time 13 weeks) | Mice with proteinuria level >1 g/L (%) (MRL/Ipr mice [4]; time 18 weeks) | Mice with proteinuria level >1 g/L (%) (MRL/Ipr mice [4]; time 23 weeks) | also measured
1 | C[C@H](O)[C@@H](NC(=O)[C@H](N)CCCNC(=N)N)C(=O)N[C@H](Cc1ccc(O)cc1)C(=O)NCCCC[C@H](NC(=O)[C@@H](Cc1ccc(O)cc1)NC(=O)[C@H](NC(=O)[C@H](N)CCCNC(=N)N)[C@H](C)O)C(=O)NCCCC[C@H](NC(=O)[C@H](CCCCNC(=O)[C@@H](Cc1ccc(O)cc1)NC(=O)[C@H](NC(=O)[C@H](N)CCCNC(=N)N)[C@H](C)O)NC(=O)[C@@H](Cc1ccc(O)cc1)NC(=O)[C@H](NC(=O)[C@H](N)CCCNC(=N)N)[C@H](C)O)C(=O)NCC(=O)O [D-PAM, (H2 N-D-Arg-D-Thr-D-Tyr-CO)4 -(Lys)2 -Lys-Gly-OH] | 100% | 100% | 90% | 80% | 0.663 A 405 | 1.8 fold increase | 2.5 fold increase | 3.5 fold increase | 3.5 fold increase | 4.3 fold increase | evident reduction in the glomerulonephropathic progression | 83% | 73% | 68% | 63% | marked delay in the onset of severe proteinuria | 0% | 0% | 0% | 20% | Stability to proteolytic attack (in words) (in vitro): more stable to proteolytic attack than L-PAM; Time until which treated mice did not develop proteinuria (MRL/Ipr mice [4]; 1 mg i.p. twice a week): 20 weeks; Mice with proteinuria level >1 g/L (%) (MRL/Ipr mice [4]; time 28 weeks): 30%
2 | C[C@@H](O)[C@H](NC(=O)[C@@H](N)CCCNC(=N)N)C(=O)N[C@@H](Cc1ccc(O)cc1)C(=O)NCCCC[C@H](NC(=O)[C@H](Cc1ccc(O)cc1)NC(=O)[C@@H](NC(=O)[C@@H](N)CCCNC(=N)N)[C@@H](C)O)C(=O)NCCCC[C@H](NC(=O)[C@H](CCCCNC(=O)[C@H](Cc1ccc(O)cc1)NC(=O)[C@@H](NC(=O)[C@@H](N)CCCNC(=N)N)[C@@H](C)O)NC(=O)[C@H](Cc1ccc(O)cc1)NC(=O)[C@@H](NC(=O)[C@@H](N)CCCNC(=N)N)[C@@H](C)O)C(=O)NCC(=O)O [L-PAM, (H2 N-L-Arg-L-Thr-L-Tyr-CO)4 -(Lys)2 -Lys-Gly-OH] | 100% | 90% | 50% | 40% | 0.462 A 405 | 1.8 fold increase | 2.5 fold increase | 3.6 fold increase | 3.6 fold increase | 4.5 fold increase | evident reduction in the glomerulonephropathic progression | 57% | 31% | 19% | 12% | marked delay in the onset of severe proteinuria | 0% | 0% | 10% | 50% | Mice with proteinuria level >1 g/L (%) (MRL/Ipr mice [4]; time 28 weeks): 60%
